5 compounds from patent publication US12171230B2, “Herbicidal compositions” (Bayer Aktiengesellschaft, priority 2018, dated 2024) can be followed below.

SMILES strings stand for the structures. Where “and” joins values, the source holds several entries; their conditions need not be identical. Equal values may be shown once.

Holding throughout (type): in vivo
The subject of one experiment is Amaranthus palmeri. Kind of experiment: Post-emergence herbicidal action against Amaranthus palmeri. To be noted: for Herbicidal action: 21 DAT. In short, it runs like this:
(§1)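 Greenhouse pot test: three-leaf-stage plants, three weeks from sowing, sprayed with spray-powder or emulsion-concentrate formulations at several dosages (300 to 800 l/ha water). Efficacy rated visually against untreated plants some 3 to 4 weeks later, with Colby formula giving expected combination effect.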

The subject of the next experiment is Bidens pilosa. Kind of experiment: Post-emergence herbicidal action against Bidens pilosa. As to conditions: for Herbicidal action: 21 DAT; for Herbicidal action 21 DAT [%] against Bidens pilosa: block with (B1.14) Tembotrione. In short, it runs like this: as §1
In the next experiment the test system is Brachiaria platyphylla. Kind of experiment: Post-emergence herbicidal action against Brachiaria platyphylla. As to conditions: for Herbicidal action: 21 DAT; for Herbicidal action 21 DAT [%] against Brachiaria platyphylla: post-emergence, block with (B1.14) Tembotrione. As for the experimental part:
(§2) When the observed efficacies exceed the formal sum total of the values of the tests with individual applications, they also exceed the expected value according to Colby, which is calculated using the formula below and is likewise regarded as an indication of synergism (cf. S. R. Colby; in Weeds 15 (1967) p. 20 to 22): E^C=A+B−([…])
(§3) Here: • A=efficacy of the active compound (A) in % at an application rate of a g a.i./ha; • B=efficacy of the active compound (B) in % at an application rate of b g a.i./ha; • E^C=expected value of the effect of the combination (A)+(B) in % at the combined application rate a+b g a.i./ha.
(§4) Seeds or rhizome pieces of mono- and dicotyledonous weeds are placed in sandy loam in pots, covered with soil and grown in a greenhouse under good growth conditions (temperature, air humidity, water supply). Three weeks after sowing, the test plants were treated at the three-leaf stage with the compositions according to the invention. The compositions according to the invention formulated as spray powders or as emulsion concentrates were sprayed onto the green plant parts in various dosages with an application rate of 300 to 800 l/ha of water (equivalent). After the test plants have been left to stand in the greenhouse under optimal growth conditions for about 3 to 4 weeks, the action of the preparations is scored visually in comparison to untreated controls. The compositions according to the invention also have good post-emergence herbicidal activity against a broad spectrum of economically important gramineous and broadleaf weeds.

The test system of another experiment is Setaria viridis. Kind of experiment: Post-emergence herbicidal action against Setaria viridis. To be noted: for Herbicidal action: 21 DAT. On the procedure:
as §2, §3, §4

A further experiment has as its system Sorghum halepense. Kind of experiment: Post-emergence herbicidal action against Sorghum halepense. As to conditions: for Herbicidal action: 21 DAT; for Herbicidal action 21 DAT [%] against Sorghum halepense: post-emergence. On the procedure: as §2, §3, §4
A further experiment deals with Digitaria sanguinalis. As to the kind of experiment: Post-emergence herbicidal action against Digitaria sanguinalis. As to conditions: 21 DAT. Summed up: as §1
Another experiment concerns Echinochloa crus-galli. Kind of experiment: Post-emergence herbicidal action against Echinochloa crus-galli. To be noted: for Herbicidal action: 21 DAT. On the procedure: as §2, §3, §4
The test system of experiment [1] is Eleusine indica. Kind of experiment: Post-emergence herbicidal action against Eleusine indica. As to conditions: (Z3) post-emergence, g of a.i./ha: 270, 90, 15, 5, 5 + 270, 15 + 90. From the text: (§5) The following abbreviations are used in the description and the tables that follow: • g of a.i./ha=grams of active substance (active ingredient) (=100% active compound) per hectare; • The sum total of the effects of the individual applications is reported under E^A; • expected values according to Colby are each reported under E^C.
(§6) The rating period is reported in days after application (DAT).

Experiment [2] has as its system Eleusine indica. The experiment is described as above. To be noted: 21 DAT.
Experiment [3] concerns Polygonum convolvulus. As to the kind of experiment: Post-emergence herbicidal action against Polygonum convolvulus. As to conditions: g of a.i./ha: 90, 30, 45, 45 + 90, 45 + 30.
Source text: as §5, §6

Experiment [4] relates to Kochia scoparia. As to the kind of experiment: Post-emergence herbicidal action against Kochia scoparia. As to conditions: 21 DAT.
In experiment [5] the test system is Polygonum convolvulus. As to the kind of experiment: Post-emergence herbicidal action against Polygonum convolvulus. As to conditions: 21 DAT.
Experiment [6] relates to Kochia scoparia. As to the kind of experiment: Post-emergence herbicidal action against Kochia scoparia. As to conditions: g of a.i./ha by row: 30, 5, 5 + 30.
Source text: as §5, §6

For a further experiment, the system named is Abutilon theophrasti. Kind of experiment: Post-emergence herbicidal action against Abutilon theophrasti. As to conditions: g of a.i./ha: 90, 30, 15, 15 + 90, 15 + 30.
Source text: as §5, §6

The next experiment deals with Ipomoea hederacea. Kind of experiment: Post-emergence herbicidal action against Ipomoea hederacea. On the procedure: as §2, §3, §4
The next experiment relates to Pharbitis purpurea. Kind of experiment: Post-emergence herbicidal action against Pharbitis purpurea. As to conditions: 21 DAT; 50 g a.i./ha. As for the experimental part:
as §2, §3, §4

The test system of another experiment is Poa annua. Kind of experiment: Post-emergence herbicidal action against Poa annua. As to conditions: 28 DAT. Summed up:
as §1

Another experiment concerns Centaurea cyano. As to the kind of experiment: Post-emergence herbicidal action against Centaurea cyano. As to conditions: 150 g a.i./ha. Summed up: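 Formulations (spray powders or emulsion concentrates) applied at various doses onto foliage using 300 to 800 l/ha water; plants treated at three-leaf stage, three weeks post-sowing in sandy loam under greenhouse conditions.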

In a further experiment the test system is Bromus sterilis. As to the kind of experiment: Post-emergence herbicidal action against Bromus sterilis. As to conditions: 28 DAT; 150 g a.i./ha.
A further experiment relates to Lolium rigidum. As to the kind of experiment: Post-emergence herbicidal action against Lolium rigidum. To be noted: 28 DAT; resistant biotype; 50 g a.i./ha.

Regarding `COC(=O)[C@H]1C[C@@H](NC(=O)C2(OC)CC(c3cc(Cl)cc(Cl)c3)=NO2)CO1` (relative stereo) [Compound A1, methyl rel-(2R,4R)-4-[[3-(3,5-dichlorophenyl)-5-methoxy-4H-isoxazole-5-carbonyl]amino]tetrahydrofuran-2-carboxylate], the Herbicidal action is given as 10% in the experiment with Amaranthus palmeri ((res.), 5 g a.i./ha); 10% in the experiment with Amaranthus palmeri ((res.), 15 g a.i./ha); 40% with Amaranthus palmeri ((res.), 45 g a.i./ha); 35% in the experiment with Bidens pilosa (15 g a.i./ha); 50% in the experiment with Brachiaria platyphylla (1.7 g a.i./ha); 15% in the experiment with Setaria viridis (1.7 g a.i./ha). Further, the Herbicidal action turned out to be 10% with Sorghum halepense (1.7 g a.i./ha); 35% in the experiment on Sorghum halepense (15 g a.i./ha); 20% in the experiment with Digitaria sanguinalis (1.7 g a.i./ha); 20% with Eleusine indica [2] (1.7 g a.i./ha); 20% in the experiment with Kochia scoparia [4] (5 g a.i./ha); 45% with Kochia scoparia [4] (15 g a.i./ha). The Herbicidal action in the experiment on Polygonum convolvulus [5] (5 g a.i./ha) and in the experiment on Polygonum convolvulus [5] (45 g a.i./ha) was 85% each time. The “Herbicidal action 21 DAT against Bidens pilosa” value with Bidens pilosa (post-emergence, g of a.i./ha: 90, 30, 15, 15 + 90, 15 + 30) is recorded as 35%. Also, in the experiment with Echinochloa crus-galli ((Z3) post-emergence, g of a.i./ha: 270, 30, 5, 5 + 270, 5 + 30), the “Herbicidal action 21 DAT against Echinochloa crus-galli” value is recorded as 10%. The entries for the “Herbicidal action 21 DAT against Eleusine indica” value with Eleusine indica [1] (5 g of a.i./ha) and in the experiment on Eleusine indica [1] (15 g of a.i./ha) were 45% and 70%, respectively. Besides, the “Herbicidal action 21 DAT against Polygonum convolvulus” value in the experiment on Polygonum convolvulus [3] was determined as 85%.

`C=CC1(C(=O)N[C@H]2CO[C@@H](C(=O)OC)C2)CC(c2cc(Cl)cc(Cl)c2)=NO1` (relative stereo) [Compound A2, methyl rel-(2R,4R)-4-[[3-(3,5-dichlorophenyl)-5-vinyl-4H-isoxazole-5-carbonyl]amino]tetrahydrofuran-2-carboxylate]: the Herbicidal action in the experiment with Amaranthus palmeri (5 g a.i./ha) is given as 45%; in the experiment on Bidens pilosa (5 g a.i./ha), 45%; in the experiment on Bidens pilosa (15 g a.i./ha) it was 50%; with Bidens pilosa (45 g a.i./ha), 70%; in the experiment on Setaria viridis (1.7 g a.i./ha), 10%; in the experiment on Echinochloa crus-galli (15 g a.i./ha) it was 80%. For the same compound, the Herbicidal action stood at 10% in the experiment on Eleusine indica [2] (1.7 g a.i./ha) and 40% in the experiment on Kochia scoparia [4] (5 g a.i./ha). Besides, the “Herbicidal action 21 DAT against Kochia scoparia” value in the experiment on Kochia scoparia [6] was 40%. Besides, the “Herbicidal action 21 DAT against Abutilon theophrasti” value with Abutilon theophrasti turned out to be 75%.

In the case of `CS(=O)(=O)c1ccc(C(=O)C2C(=O)CCCC2=O)c(Cl)c1COCC(F)(F)F` [(B1.14) Tembotrione, tembotrione, reference compound], the pest or weed control at 5 g/ha with Amaranthus palmeri (Amaranthus palmeri, post-emergence, 504 h, 5 g of a.i./ha, post-emergence, block with (B1.14) Tembotrione, read-out: Herbicidal action 21 DAT [%] against Amaranthus palmeri) was 10%. Also, in the experiment on Amaranthus palmeri (Amaranthus palmeri, post-emergence, 504 h, 15 g of a.i./ha, post-emergence, block with (B1.14) Tembotrione, read-out: Herbicidal action 21 DAT [%] against Amaranthus palmeri), the pest or weed control at 15 g/ha came out at 20%. Further, the “Herbicidal action 21 DAT [%] against Bidens pilosa” value in the experiment with Bidens pilosa (5 g of a.i./ha, post-emergence) is recorded as 10%; with Bidens pilosa (15 g of a.i./ha, post-emergence), 25%; in the experiment on Bidens pilosa (45 g of a.i./ha, post-emergence), 25%. Moreover, the “Herbicidal action 21 DAT [%] against Brachiaria platyphylla” value with Brachiaria platyphylla (15 g of a.i./ha) and in the experiment with Brachiaria platyphylla (45 g of a.i./ha) was 50% in each case. The “Herbicidal action 21 DAT [%] against Setaria viridis” value with Setaria viridis (5 g of a.i./ha, post-emergence) stood at 10%. For the same compound, the “Herbicidal action 21 DAT [%] against Sorghum halepense” value turned out to be 30% with Sorghum halepense (5 g of a.i./ha) and 50% in the experiment with Sorghum halepense (15 g of a.i./ha). For the same compound, the “Herbicidal action 37 DAT [%] against Ipomoea hederacea” value in the experiment with Ipomoea hederacea (37.5 g of a.i./ha, post-emergence) is 0%.

As for `CCS(=O)(=O)c1cccnc1S(=O)(=O)NC(=O)Nc1nc(OC)cc(OC)n1` [(B2.63) Rimsulfuron], the “Herbicidal action 37 DAT against Ipomoea hederacea” value in the experiment with Ipomoea hederacea (35 g of a.i./ha) was 0%.

With `CP(=O)(O)CCC(N)C(=O)O` (stereo not shown) [(B7.4) Glufosinate], the Herbicidal action in the experiment on Amaranthus palmeri (50 g a.i./ha) is 50%; with Amaranthus palmeri ((res.), 50 g a.i./ha), 35%; in the experiment on Amaranthus palmeri ((res.), 150 g a.i./ha), 70%; in the experiment on Bidens pilosa (50 g a.i./ha), 30%; with Bidens pilosa (150 g a.i./ha), 75%; in the experiment with Bidens pilosa (450 g a.i./ha) it was 75% and 90%. Moreover, the Herbicidal action with Brachiaria platyphylla (150 g a.i./ha) was 70%; in the experiment on Setaria viridis (50 g a.i./ha) it was 40% and 20%; with Sorghum halepense (50 g a.i./ha), 20%; in the experiment with Sorghum halepense (450 g a.i./ha), 5%; in the experiment on Digitaria sanguinalis (450 g a.i./ha), 85%; with Pharbitis purpurea, 20%. The Herbicidal action with Poa annua (50 g a.i./ha) is on record as 20%; with Poa annua (150 g a.i./ha), 30%; in the experiment with Centaurea cyano (14 DAT), 60%; with Centaurea cyano (28 DAT), 30%; in the experiment on Echinochloa crus-galli (150 g a.i./ha), 65%; in the experiment on Eleusine indica [2] (50 g a.i./ha), 15%. Besides, the Herbicidal action with Eleusine indica [2] (150 g a.i./ha) is 35% and 40%; in the experiment on Eleusine indica [2] (450 g a.i./ha), 60%; in the experiment with Kochia scoparia [4] (50 g a.i./ha), 20%; in the experiment with Kochia scoparia [4] (450 g a.i./ha), 80%; in the experiment on Polygonum convolvulus [5] (50 g a.i./ha), 10%; with Polygonum convolvulus [5] (150 g a.i./ha), 20%. Further, the Herbicidal action in the experiment on Bromus sterilis and in the experiment with Lolium rigidum was 10% each time.
